Drawing on US5116949A, “Benzoyl urea compound-albumin complex” (Ishihara Sangyo Kaisha Ltd., priority 1988, dated 1992), this text covers solubility for 1 compound.

Converted amounts (≈) assume the structure as drawn.

This data set can be described thus: Solubility in distilled water for injection drug. In kind it is physicochemical. Particulars: Compound 3 alone, read-out: Solubility (as Compound 3).

Take `O=C(NC(=O)c1ccccc1[N+](=O)[O-])Nc1ccc(Oc2ncc(Br)cn2)c(Cl)c1` [Compound 3]: the solubility – broadly, the concentration that dissolves in the medium under given conditions – came out at 0.024 µg/mL (≈ 0.0487 µM).
